Laboratory results taken from ChEMBL document CHEMBL5303304, “EUbOPEN Chemogenomics Library - IncuCyte” (2023).

Tests used:
Format in all cases: toxicity, cell-based
[1] = system: HEK-293T; assay: Incucyte cell viability with HEK293T; conditions: human, 10 µM, compound concentration 10 uM
[2] = system: U2OS; assay: Incucyte cell viability with U2OS; conditions: human, 10 µM, compound concentration 10 uM
[3] = system: Fibroblast; assay: Incucyte cell viability with human fibroblast; conditions: 10 µM, compound concentration 10 uM
Note: unitless GR value; below 1 slowed growth and below 0 cell loss.

SMILES	Growth Rate ([1]; 6 h, replicate number 1)	Growth Rate ([1]; 6 h, replicate number 2)	Growth Rate ([1]; 12 h, replicate number 2)	Growth Rate ([2]; 0 h, replicate number 1)	Growth Rate ([2]; 6 h, replicate number 2)	Growth Rate ([2]; 12 h, replicate number 1)	Growth Rate ([2]; 18 h, replicate number 1)	Growth Rate ([3]; 6 h, replicate number 2)	Growth Rate ([3]; 12 h, replicate number 2)	Growth Rate ([3]; 18 h, replicate number 1)	Growth Rate ([3]; 18 h, replicate number 2)	Growth Rate ([3]; 24 h, replicate number 1)	Growth Rate ([3]; 24 h, replicate number 2)	Growth Rate ([2]; 12 h, replicate number 2)	Growth Rate ([2]; 18 h, replicate number 2)	Growth Rate ([2]; 24 h, replicate number 1)	Growth Rate ([2]; 6 h, replicate number 1)	Growth Rate ([1]; 18 h, replicate number 1)	Growth Rate ([1]; 24 h, replicate number 1)	Growth Rate ([2]; 24 h, replicate number 2)	further results
c1ccc2nc(N3CCNCC3)ccc2c1 [QUIPAZINE]	0.43	0.5	0.95	-0.85	0.58	0.55	0.94	0.04	0.92	0.52	0.72	0.85	0.58								Growth Rate ([3]; 0 h, replicate number 1): 0.15; Growth Rate ([3]; 0 h, replicate number 2): 0.79; Growth Rate ([3]; 6 h, replicate number 1): 0.27; Growth Rate ([3]; 12 h, replicate number 1): -0.91
CCOc1cc(CC(=O)N[C@@H](CC(C)C)c2ccccc2N2CCCCC2)ccc1C(=O)O [REPAGLINIDE]									0.38		0.61		0.86	0.94	0.96	0.99					Growth Rate ([1]; 0 h, replicate number 1): 0.91; Growth Rate ([1]; 0 h, replicate number 2): 0.8
O=C(O)c1cc(F)c2nc(N3[C@@H]4CC[C@H]3C[C@@H](OCc3c(-c5ccccc5OC(F)(F)F)noc3C3CC3)C4)sc2c1 [TROPIFEXOR]						0.99		0.98		0.63		0.97					0.63				Growth Rate ([1]; 0 h, replicate number 2): 0.6; Growth Rate ([3]; 0 h, replicate number 2): 0.33; Growth Rate ([3]; 12 h, replicate number 1): 0.31
Cn1nccc1-c1ccc(Sc2cccc(C3(C(N)=O)CCOCC3)c2)cc1 [PF-4191834]	-0.02	-0.28	-0.18		0.8		0.94	0.25	0.52	-0.01	0.45	0.22	0.46	0.79	0.88	0.76	0.7	0.29	0.31	0.93	Growth Rate ([1]; 0 h, replicate number 1): 0.41; Growth Rate ([1]; 12 h, replicate number 1): 0.37; Growth Rate ([1]; 18 h, replicate number 2): 0; Growth Rate ([1]; 24 h, replicate number 2): 0.15; Growth Rate ([3]; 0 h, replicate number 2): -0.66; Growth Rate ([3]; 6 h, replicate number 1): -0.12; Growth Rate ([3]; 12 h, replicate number 1): 0
N=C(N)NCCC[C@H](NC(=O)C(c1ccccc1)c1ccccc1)C(=O)NCc1ccc(CNC(N)=O)cc1.O=C(O)C(F)(F)F								-0.57	0.52		0.75	0.9	0.58	0.88		0.96	0.97				Growth Rate ([1]; 0 h, replicate number 1): 0.26; Growth Rate ([3]; 0 h, replicate number 1): -1
COc1cccc(-c2c(C)c(Cc3c(F)cccc3C(F)(F)F)c3n(c2=O)[C@@H]([C@@H](N)c2ccccc2)CS3)c1F			0.52	0.81	0.4	0.52	0.62	-0.66	0.73	0.92		0.83	0.87	0.75	0.91	0.37	0.48	0.72	0.6	0.93	Growth Rate ([1]; 0 h, replicate number 2): -0.28; Growth Rate ([1]; 18 h, replicate number 2): 0.5; Growth Rate ([1]; 24 h, replicate number 2): 0.46; Growth Rate ([2]; 0 h, replicate number 2): -0.8; Growth Rate ([3]; 0 h, replicate number 1): -1; Growth Rate ([3]; 6 h, replicate number 1): 0.51
Fc1ccc(Cl)cc1-c1nc(Nc2ccncc2)c2nccnc2n1		0.79	0.91	-0.59	0.55	0.86	0.67							0.77	0.87	0.95	0.78			0.75	Growth Rate ([1]; 0 h, replicate number 1): -0.93; Growth Rate ([2]; 0 h, replicate number 2): 0.75; Growth Rate ([3]; 0 h, replicate number 2): -0.5
COC(=O)c1ccc2c(c1)NC(=O)/C2=C(\Nc1ccc(-c2nccn2C)cc1)c1ccccc1	-0.53	-0.73	-0.51	-1	0.77	0.53	0.46							0.61	0.62	-0.6	0.57	-0.26	-0.09	0.46	Growth Rate ([1]; 12 h, replicate number 1): -0.37; Growth Rate ([1]; 18 h, replicate number 2): -0.37; Growth Rate ([1]; 24 h, replicate number 2): -0.27; Growth Rate ([3]; 0 h, replicate number 1): -1
O=C(Nc1cccc(C(F)(F)F)c1)c1cc(Cl)ccc1O	-0.8	-0.84	-0.56	-0.07	0.71	0.63	0.4	-0.88	-0.65	0.8	-0.55	0.08	-0.46	0.59	0.41	0.28	0.96	-0.77	-0.67	0.27	Growth Rate ([1]; 12 h, replicate number 1): -0.85; Growth Rate ([1]; 18 h, replicate number 2): -0.41; Growth Rate ([1]; 24 h, replicate number 2): -0.3; Growth Rate ([3]; 6 h, replicate number 1): -0.98
Nc1ncnc2c1c(I)cn2[C@@H]1O[C@H](CO)[C@@H](O)[C@H]1O [IODOTUBERCIDIN]	-0.1	-0.01	-0.29	-0.27	0.34	0.15	-0.13	0.95	0.25	0.57	0.43	0.53		-0.14	-0.04	-0.26	-0.39	-0.21	-0.1	-0.18	Growth Rate ([1]; 0 h, replicate number 1): -0.62; Growth Rate ([1]; 12 h, replicate number 1): -0.22; Growth Rate ([1]; 18 h, replicate number 2): -0.24; Growth Rate ([1]; 24 h, replicate number 2): -0.16; Growth Rate ([3]; 0 h, replicate number 2): 0.24; Growth Rate ([3]; 6 h, replicate number 1): 0.18; Growth Rate ([3]; 12 h, replicate number 1): 0.39
CC1(C)CCN(C(=O)C2CN(c3c4c(nc5ccnn35)CCNCC4)C2)C1.O=C(O)C(F)(F)F	-0.5								0.82		0.86	0.98	0.96				0.78	0.87	0.96		Growth Rate ([1]; 0 h, replicate number 2): 0.61; Growth Rate ([1]; 12 h, replicate number 1): 0.45
